The values below are quoted from earlier work in patent US6673333B1, “Functional MRI agents for cancer imaging” (Research Corporation Technologies, Inc., priority 2000, dated 2004).

For series [1] the following is noted: thermodynamic stability of the Gd(III) chelate complex.
For series [2] the following is noted: at physiological pH.

As to `O=C([O-])CN1CCN(CC(=O)[O-])CCN(CC(=O)O)CCN(CC(=O)[O-])CC1.[Gd+3]` [Gd-DOTA], the “stability constant (K), formation constant, logK” value in series [1] was 28.5. In addition, the dissociation kinetics entry in series [2] is on record as “very slow”.
Take `O=C([O-])CN(CCN(CC(=O)[O-])CC(=O)[O-])CCN(CC(=O)[O-])CC(=O)[O-].[Gd+3]` [Gd(DTPA)^2−]: in series [1], the “stability constant (K), formation constant, logK” value is on record as 22.4.
